Test results published in the supplement of paper PMC10307832.

Tests used:
Assay in all cases: relative viability (nuclei count vs DMSO), 5 days (fraction); higher = more cells survive
[1] = compound: C1CNCCC1C2=CC(=NN2)C3=CC=NC=C3 + COc1cccc2cc(-c3nc([C@H]4CC[C@H](C(=O)O)CC4)n4ncnc(N)c34)[nH]c12 [OSI-027] (partner 0.5 µM)
Procedure, shortened: (§1)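 The day after seeding in 1536-well plates, lung cancer cell lines were treated by pin tool with a single drug, or with a fixed anchor-drug dose together with five library-drug doses (not always all listed) in √10 steps. After 5 days, a combined fix-and-stain solution (final 0.05% Triton X-100, 1% formaldehyde, 1 ug/ml Hoechst) was added. Nuclei counted on 4× images gave relative viability as treated counts over vehicle counts, reported as the median of duplicate plates.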

[2] = compound: C[C@@H](N)c1ccc(C(=O)Nc2ccnc3[nH]ccc23)cc1 + CC(=O)Nc1cccc(-n2c(=O)n(C3CC3)c(=O)c3c(Nc4ccc(I)cc4F)n(C)c(=O)c(C)c32)c1 [Trametinib] (partner 0.02 µM)
Procedure, shortened: as §1

[3] = compound: C1CNCCC1C2=CC(=NN2)C3=CC=NC=C3 + Cc1nc(Nc2ncc(C(=O)Nc3c(C)cccc3Cl)s2)cc(N2CCN(CCO)CC2)n1 [Dasatinib] (partner 0.075 µM)
Procedure, shortened: as §1

[4] = compound: C[C@@H](N)c1ccc(C(=O)Nc2ccnc3[nH]ccc23)cc1 + N=C(N)NC(=N)NCCc1ccccc1 [Phenformin] (partner 250 µM)
Procedure, shortened: as §1

Cell Line	relative viability ([1]; first compound 0.08 µM)	relative viability ([1]; first compound 0.8 µM)	relative viability ([1]; first compound 2.53 µM)	relative viability ([1]; first compound 8 µM)	relative viability ([2]; first compound 0.04 µM)	relative viability ([2]; first compound 0.1265 µM)	relative viability ([2]; first compound 0.4 µM)	relative viability ([2]; first compound 4 µM)	relative viability ([3]; first compound 0.08 µM)	relative viability ([3]; first compound 0.8 µM)	relative viability ([3]; first compound 2.53 µM)	relative viability ([3]; first compound 8 µM)	relative viability ([4]; first compound 0.04 µM)	relative viability ([4]; first compound 0.1265 µM)	relative viability ([4]; first compound 0.4 µM)	relative viability ([4]; first compound 1.265 µM)	relative viability ([4]; first compound 4 µM)	relative viability ([2]; first compound 1.265 µM)
NCI-H1395	0.603	0.57	0.71	0.694	1.04	0.996	1.03	0.912	0.399	0.345	0.381	0.471	0.433	0.497	0.436	0.36	0.453	
NCI-H2126	0.724	0.591	0.725	0.698	0.515	0.561	0.534	0.676	0.504	0.613	0.655	0.661	0.588	0.558	0.592	0.505	0.502	0.637
H3255	0.52	0.629	0.577	0.759	0.704	0.694	0.748	0.583	0.352	0.378	0.369	0.488	0.396	0.332	0.337	0.348	0.322	0.757
HCC-15	0.677	0.682	0.694	0.693	0.456	0.365	0.422	0.362	0.556	0.646	0.639	0.609	0.447	0.465	0.437		0.424	0.384
NCI-H661	0.707	0.835	0.739	0.634	0.48	0.595	0.571	0.494	0.896	0.839	1.05	0.817	0.222	0.274	0.247	0.224	0.244	0.475
NCI-H2009	0.761	0.699	0.749	0.725	0.219	0.268	0.236	0.214	0.323	0.265	0.318	0.31	0.473	0.531	0.468	0.443	0.435	0.21
NCI-H522	0.731	0.813	0.693	0.709	0.798	0.789	0.66	0.745	0.841	0.869	0.896	0.967	0.69	0.549	0.668	0.591	0.402	1.02
ChaGo-K-1	0.559	0.557	0.589	0.575	0.888	0.863	0.823	0.789	0.58	0.657	0.643	0.627	0.495	0.493	0.46	0.346	0.507	0.894
COR-L23	0.691	1.01	0.761	0.73	0.414	0.591	0.604	0.389	0.532	0.417	0.518	0.469	0.44	0.526	0.442	0.28	0.277	0.262
EMC-BAC-2	0.379	0.368	0.421	0.368	0.958	1.04	1.03	0.969	0.261	0.349	0.352	0.395	0.41	0.553	0.469	0.404	0.409	1.01
LCLC-103H	0.432	0.485	0.447	0.457	0.715	0.618	0.647	0.634	0.462	0.505	0.396	0.537	0.284	0.351	0.329	0.268	0.308	0.616
LK-2	0.264	0.284	0.223	0.209	1.03	0.733	0.694	0.933	0.236	0.388	0.275	0.482	0.325		0.744		0.636	0.939
SW 1573		0.666	0.727	0.752	0.767	0.615	0.598	0.529		0.647	0.658	0.486	0.363	0.487	0.368	0.363	0.284	0.56
NCI-H2405	0.72	0.627	0.731	0.674		0.64	0.418	0.299	0.201	0.213	0.187	0.202	0.176	0.449	0.369	0.264	0.218	0.377
NCI-H2087	0.471	0.616	0.619	0.573	0.284	0.214	0.202	0.251	0.662	1.02	0.75	0.84	0.497	0.571	0.554		0.557	0.229
NCI-H460	0.496	0.833	0.775	0.676	0.217	0.165	0.243	0.178	0.387	0.454	0.537	0.529	0.509	0.522	0.558	0.535	0.495	0.0564
LOU-NH91	0.696	0.74	0.796	0.727	0.746	0.796	0.739	0.539	0.527	0.572	0.624	0.545	0.589	0.628	0.672	0.28	0.646	0.644
NCI-H1651	0.649	0.767	0.827	0.76	0.877	0.862	0.959	0.848	0.381	0.404	0.348	0.486	0.426	0.315	0.312	0.372	0.301	0.941
NCI-H441	0.536	0.769	0.736	0.867	0.522	0.61	0.478	0.405	0.465	0.673	0.797	0.576	0.879	0.995	0.879		0.74	0.38
